Results: EP1069898B1, “TOPICAL ANTISEPTIC COMPOSITIONS AND METHODS” (MARGOLIN, Solomon B., priority 1998, dated 1999)

Assays:
Escherichia coli = experiment: Preliminary antimicrobial test, plate growth score; format: cell-based
Staphylococcus aureus = experiment: Preliminary antimicrobial test, plate growth score; format: cell-based
Proteus vulgaris = experiment: Preliminary antimicrobial test, plate growth score; format: cell-based
[1] = Storage stability (chemical assays and physical characteristics); format: physicochemical; details: crystalline; 25 degrees Centigrade
Text: A critical feature of the compositions of this invention is the chemical stability of the active ingredient(s), pirfenidone and/or related compounds. Crystalline pirfenidone is stable at room temperature (i.e., 25 degrees Centigrade) for more than five years. The formulations described above are stable for two years or longer at 25 degrees Centigrade (room temperature), based upon chemical assays and upon physical characteristics (color, plasticity, active ingredient dispersion and suspension).

Pseudomonas aeruginosa = experiment: Preliminary antimicrobial test, plate growth score; format: cell-based; parameters: key: 1=very slight; 2=slight; 3=slight to moderate; 4=moderate; 10=total plate growth (maximal growth)
[2] = Primary rabbit acute eye irritation test (Draize method); format: in vivo; details: 2.0% sterile aqueous solution, 0.1 ml. per eye; six albino rabbits; examined up to 10 days
Method: The eyes were carefully examined at 1.0 minutes, 30 minutes, and 3 hours after applying the solution, and then repeatedly examined for 10 days after the application of the pirfenidone solution (0.1 ml. per eye).
The eyes were carefully examined at 1, 3, 8, 24, and 48 hours and carefully re-examined daily for 10 days after the application of the ointment (100 milligrams per eye).

Candida albicans = experiment: Preliminary antimicrobial test, plate growth score; format: cell-based; parameters: key: 1=very slight; 2=slight; 3=slight to moderate; 4=moderate; 10=total plate growth (maximal growth)
Bacillus subtilis = experiment: Preliminary antimicrobial test, plate growth score; format: cell-based
[3] = system: Trychophton mentagrophytes; experiment: Preliminary antimicrobial test, plate growth score; format: cell-based; parameters: key: 1=very slight; 2=slight; 3=slight to moderate; 4=moderate; 10=total plate growth (maximal growth)
Aspergillus niger = experiment: Preliminary antimicrobial test, plate growth score; format: cell-based
[4] = Pirfenidone concentration 5.0 wt.%
[5] = Pirfenidone concentration 10.0 wt.%

Cc1ccc(=O)n(-c2ccccc2)c1 [Pirfenidone, 5-methyl-1-phenyl-2-(1H) pyridone]
2: GROWTH SCORES (0 TO 10) (Candida albicans; [4]) | GROWTH SCORES (0 TO 10) [3, 4]
1: GROWTH SCORES (0 TO 10) (Pseudomonas aeruginosa; Pirfenidone concentration 2.0 wt.%)
failed to cause any irritation: eye irritation (hyperemia, edema, eye discomfort, chemotaxis) [2]
more than five: stable at room temperature [1]
0: GROWTH SCORES (0 TO 10) (Escherichia coli; [4]) | GROWTH SCORES (0 TO 10) (Escherichia coli; [5]) | GROWTH SCORES (0 TO 10) (Staphylococcus aureus; [4]) | GROWTH SCORES (0 TO 10) (Staphylococcus aureus; [5]) | GROWTH SCORES (0 TO 10) (Proteus vulgaris; [4]) | GROWTH SCORES (0 TO 10) (Proteus vulgaris; [5]) | GROWTH SCORES (0 TO 10) (Pseudomonas aeruginosa; [4]) | GROWTH SCORES (0 TO 10) (Pseudomonas aeruginosa; [5]) | GROWTH SCORES (0 TO 10) (Candida albicans; [5]) | GROWTH SCORES (0 TO 10) (Bacillus subtilis; [4]) | GROWTH SCORES (0 TO 10) (Bacillus subtilis; [5]) | GROWTH SCORES (0 TO 10) [3, 5] | GROWTH SCORES (0 TO 10) (Aspergillus niger; [4]) | GROWTH SCORES (0 TO 10) (Aspergillus niger; [5])
